Entries after “also recorded” stand apart in the source; their conditions may differ. Where two headings read alike, the source gives them in different places.
Tests used:
σ1R [1] = target: T1, σ1R (Cavia porcellus, UniProt Q60492); experiment: σ1R radioligand binding assay ([3H]-pentazocine, guinea pig brain membrane homogenates); conditions: for Ki: mean ± SD of three independent experiments, [3H]-pentazocine, free base; for Ki σ2/Ki σ1: σ1R selectivity ratio over σ2R
T1 construct: from tissue; host or cells: guinea pig brain membrane homogenates
Method: The binding assay for σ1R was carried out using guinea pig brain membrane homogenates according to DeHaven-Hudkins et al.,[58] while the binding assay for σ2R was performed following experimental procedures described by Mach et al.[59] Inhibitory constants (Ki) were calculated using the radioligand binding analysis software EBDA/Ligand (Elsevier/Biosoft).

[2] = tested on: CCI-induced mechanical allodynia; experiment: Chronic constriction injury (CCI) model, von Frey mechanical allodynia; assay type: in vivo, CD-1 mice; conditions: for anti-allodynic effect in the CCI model (result in words): von Frey, 20–80 min post-injection, 15 10–60 mg/kg i.p. (oxalate salt)
Method: CCI was introduced in CD-1 mice that were first anesthetized with isoflurane as described by Hoot et al.[66] and Cirino et al.[35] to induce mechanical allodynia.[51]−[54] After anesthetization, mice were subjected to surgery where an incision was made along the surface of the biceps femoris of the right hind paw.[66] Blunt forceps were used to split the muscle and expose the right sciatic nerve. The tips of two 0.1–10 μL pipet tips facing opposite directions were passed under the sciatic nerve to allow for easy passing of two sutures under the nerve, 1 mm apart. The sutures were tied loosely around the nerve and knotted twice, and the skin was closed with 29 mm skin staples. Mice were given a 7 day recovery period prior to the baseline von Frey testing as described below to confirm the induction of hyperalgesia in each mouse. […] Allodynic mice were then administered (i.p.) either vehicle (saline), morphine (10 mg/kg, i.p.), gabapentin (50 mg/kg, i.p.), CM304 (45 mg/kg, i.p.), or compound 15 (10–60 mg/kg, i.p.). Note that gabapentin was tested 1 h postinjection to circumvent known sedative effects that may confound the assay.[67] Each mouse was then tested for the modulation of tactile allodynia every 20 min up until 80 min post-injection with the use of von Frey testing. The assessment of mechanical allodynia was performed to measure compound 15’s efficacy against CCI-induced allodynia as described.[51]−[54] Mice were habituated on a mesh platform for 1 h prior to testing. Filaments of increasing pressure (0.4–6 g) were applied and then held to the plantar surface of both the injured and uninjured hind paws of mice for approximately 1–2 s prior to drug administration to record baseline responses to a peripheral stimulus. The filaments were applied with increasing strengths, and threshold responses were defined as two hind paw responses per trial of the same filament strength. Control or test compounds were administered (i.p.), and paw-withdrawal thresholds were again recorded from 20 to 80 min postinjection. Each hind paw was tested in a counterbalanced manner. Each time was measured in triplicate and then averaged. Responsiveness was a clear withdrawal, shaking, or licking of the paw. To account for variability between mice, data are presented as the percent of baseline paw withdrawal thresholds following filament stimulation of the ipsilateral hind paw. The following equation was used: % anti-allodynia = 100 × ([mean paw withdrawal force {g} in control group – paw withdrawal force {g} of each mouse]/mean paw withdrawal force [g] in control group).

σ1R [3] = target: σ1R; parameters: method as in PMID 22784008, PMID 31258480, PMID 31981633, PMID 32691179, PMID 28644012; conditions: cited from earlier work; for Ki: Figure 1, read-out: Ki σ1
σ2R = target: T2, σ2R (Rattus norvegicus, UniProt Q5U3Y7); parameters: method as in PMID 22784008, PMID 31258480, PMID 31981633, PMID 32691179, PMID 28644012; conditions: cited from earlier work
T2 sequence (Q5U3Y7 1-176): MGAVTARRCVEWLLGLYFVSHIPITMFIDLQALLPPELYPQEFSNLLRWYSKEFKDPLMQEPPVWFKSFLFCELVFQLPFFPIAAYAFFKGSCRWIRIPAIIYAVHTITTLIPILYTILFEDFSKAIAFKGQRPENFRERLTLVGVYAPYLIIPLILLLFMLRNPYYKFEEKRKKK

[4] = tested on: formalin-induced inflammatory nociception; experiment: Formalin-induced inflammation assay (time spent licking the paw); assay type: in vivo; conditions: C57BL/6J mice, 3–30 mg/kg i.p.; 15 as oxalate salt
Method: After a 10 min pretreatment (i.p.) of vehicle control (saline), CM304 (3–30 mg/kg, i.p.), or compound 15 (3–30 mg/kg, i.p.), an intraplantar (i.pl.) injection of 5% formalin ([…] in 15 μL) was administered into the right hind paw. Time spent licking the right hind paw was recorded in 5 min intervals for 60 min following injection. The last 55 min of assessment was used to determine the inflammatory response stimulus. Data were analyzed as the summed duration of licking hind paw.
All data are presented as mean ± SEM. Significance is indicated as *p < 0.05 and was analyzed using two-way ANOVA with Tukey’s post hoc analysis. Statistical analysis was performed with the use of GraphPad Prism 9.0 software. […]. The rotarod data are expressed as the % change from baseline performance for each animal’s baseline response.

σ1R [5] = target: T1, σ1R; parameters: method as in PMID 27262426; conditions: lead compound 8, selectivity ratio; cited from earlier work

T1 sequence (Q60492 whole entry): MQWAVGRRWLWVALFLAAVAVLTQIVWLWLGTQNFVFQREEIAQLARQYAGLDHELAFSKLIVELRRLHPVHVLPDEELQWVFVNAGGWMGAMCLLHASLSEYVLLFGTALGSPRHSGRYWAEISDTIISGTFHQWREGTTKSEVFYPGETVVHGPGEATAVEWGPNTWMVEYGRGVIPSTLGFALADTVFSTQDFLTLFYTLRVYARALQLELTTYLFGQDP

COc1ccc(CN2CCN(C(=O)CCCOc3ccccc3)CC2)cc1 [Compound 20, 1-{4-[(4-Methoxyphenyl)methyl]piperazin-1-yl}-4-phenoxybutan-1-one]
Ki (σ1R [1]): 102 ± 0.6 nM | Ki σ2/Ki σ1 (σ1R [1]): 43 | melting point: 88.3 to 91.3 °C

O=c1sc2cc(CCCF)ccc2n1CCN1CCCCCC1 [Compound 1]
time of peak anti-allodynic effect ([2]; CD-1 mice, CM304 45 mg/kg i.p., began to diminish at 60 min): 40 min | anti-allodynic effect in the CCI model (result in words) ([2]; CD-1 mice, CM304 45 mg/kg i.p.): anti-allodynic effects that are comparable to those of gabapentin | Ki (σ1R [3]): 0.96 nM | Ki σ2/Ki σ1 (σ1R [3]; printed in Figure 1, σ1R selectivity): > 486 | Ki (σ2R; Figure 1, read-out: Ki σ2): 467 nM

COc1ccc(CN2CCN(C(=O)CCC3CCCCC3)CC2)cc1 [Compound 15, 3-Cyclohexyl-1-{4-[(4-methoxyphenyl)methyl]piperazin-1-yl}propan-1-one]
Ki (σ1R [1]): 1.6 ± 0.05 nM | Ki σ2/Ki σ1 (σ1R [1]): 886 | antinociception in the formalin assay (result in words) [4]: dose-dependent (3–60 mg/kg, i.p.) antinociception and anti-allodynic effects; also recorded: significant dose-dependent antinociception; also recorded: dose-dependent increase in % antinociception; also recorded: significant antinociceptive and anti-allodynic effects | paw withdrawal thresholds in the CCI model (result in words) ([2]; 60 mg/kg, i.p., at 20, 60, and 80 min post-injection, p < 0.05): significant increases in withdrawal thresholds | anti-allodynic effect in the CCI model (result in words) ([2]; CD-1 mice, CM304 45 mg/kg i.p.): dose-dependent (3–60 mg/kg, i.p.) antinociception and anti-allodynic effects; also recorded: significant dose-dependent anti-allodynic effects; also recorded: significant antinociceptive and anti-allodynic effects

FCCC1Cc2ccccc2C2(CCC(N3CCN(C4CCCCC4)CC3)CC2)O1 (stereo not drawn) [cis-7]
Ki (σ1R [3]): 19 nM

CC(CCCn1c(=O)sc2cc(F)ccc21)N1CCN(C2CCCCC2)CC1 (stereo not drawn) [Compound 5]
Ki (σ1R [3]): 2.4 nM

COc1ccc(CN2CCN(C(=O)CCCCc3ccccc3)CC2)cc1 [Compound 13, 1-{4-[(4-Methoxyphenyl)methyl]piperazin-1-yl}-5-phenylpentan-1-one]
Ki (σ1R [1]): 18.1 ± 0.44 nM | Ki σ2/Ki σ1 (σ1R [1]): 64

FCCC1Cc2ccccc2C2(CCC(N3CCN(C4CCCCC4)CC3)CC2)O1 (stereo not drawn) [trans-7]
Ki (σ1R [3]): 12 nM

O=c1oc2ccc(Cl)cc2n1CCCCN1CCCCCC1 [Compound 6]
Ki (σ1R [3]): 2.3 nM

COc1ccc(CN2CCN(C(=O)/C=C/c3ccccc3)CC2)cc1 [Compound 16, (2E)-1-{4-[(4-Methoxyphenyl)methyl]piperazin-1-yl}-3-phenylprop-2-en-1-one]
Ki (σ1R [1]): 11.3 ± 0.26 nM | Ki σ2/Ki σ1 (σ1R [1]): 351 | melting point: 120.8 to 122.6 °C

COc1ccc(CN2CCN(C(=O)Cc3ccccc3)CC2)cc1 [Compound 22, 1-{4-[(4-Methoxyphenyl)methyl]piperazin-1-yl}-2-phenylethan-1-one]
Ki (σ1R [1]): 145 ± 0.5 nM | Ki σ2/Ki σ1 (σ1R [1]): 160 | melting point: 97.6 to 99.8 °C

O=C(CCCCc1ccccc1)N1CCN(Cc2ccc(CO)cc2)CC1 [Compound 24, 1-(4-{[4-(Hydroxymethyl)phenyl]methyl}piperazin-1-yl)-5-phenylpentan-1-one]
Ki (σ1R [1]): 6.1 ± 0.1 nM | Ki σ2/Ki σ1 (σ1R [1]): 423

COc1ccc(CN2CCN(C(=O)CCCc3ccccc3)CC2)cc1 [Compound 14, 1-{4-[(4-Methoxyphenyl)methyl]piperazin-1-yl}-4-phenylbutan-1-one]
Ki (σ1R [1]): 13.3 ± 0.22 nM | Ki σ2/Ki σ1 (σ1R [1]): 124 | melting point: 91 to 93.9 °C

COc1ccc(CN2CCN(C(=O)CCCCC3CCSS3)CC2)cc1 (stereo not drawn) [Compound 8]
Ki σ2/Ki σ1 (σ1R [5]): 432

COc1ccc(CN2CCN(C(=O)CCc3ccccc3)CC2)cc1 [Compound 21, 1-{4-[(4-Methoxyphenyl)methyl]piperazin-1-yl}-3-phenylpropan-1-one]
Ki (σ1R [1]): 8.8 ± 0.22 nM | Ki σ2/Ki σ1 (σ1R [1]): 370

OCCCN1CCCC2CC1c1cc(-c3ccc(C(F)(F)F)cc3)ccc12 (stereo not drawn) [Compound 4]
Ki (σ1R [3]): > 1000 nM

COc1cc2c(cc1OC)CN(CCCCn1c(=O)n(C)c3ccccc31)CC2 [Compound 3, 1-(4-(6,7-dimethoxy-3,4-dihydroisoquinolin-2(1H)-yl)butyl)-3-methyl-1H-benzo[d]imidazol-2(3H)-one]
Ki (σ1R [3]): 560 nM | Ki σ1/Ki σ2 (σ2R; printed in Figure 1, σ2R selectivity): > 1,302

Source: PMC8291485, “Development of New Benzylpiperazine Derivatives as σ1 Receptor Ligands with in Vivo Antinociceptive and Anti-Allodynic Effects” (ACS Chemical Neuroscience, 2021)
